Patent US12486267B2, “Imidazo[1,2-A]pyridine and [1,2,4]triazolo[1,5-A]pyridine derivatives as TLR9 inhibitors for the treatment of fibrosis” (BRISTOL-MYERS SQUIBB COMPANY, priority 2020, dated 2025)

Experiments:
Format in all cases: cell-based
human TLR8 = biological target: T1, human TLR8 (Homo sapiens, UniProt Q9NR97); assay: TLR8 inhibition reporter assay (HEK-Blue cells, SEAP reporter); details: HEK-Blue cells overexpressing human TLR8; stimulated with R848 15.9 μM; 22 hour incubation; SEAP readout
T1 sequence (Q9NR97 27-1041): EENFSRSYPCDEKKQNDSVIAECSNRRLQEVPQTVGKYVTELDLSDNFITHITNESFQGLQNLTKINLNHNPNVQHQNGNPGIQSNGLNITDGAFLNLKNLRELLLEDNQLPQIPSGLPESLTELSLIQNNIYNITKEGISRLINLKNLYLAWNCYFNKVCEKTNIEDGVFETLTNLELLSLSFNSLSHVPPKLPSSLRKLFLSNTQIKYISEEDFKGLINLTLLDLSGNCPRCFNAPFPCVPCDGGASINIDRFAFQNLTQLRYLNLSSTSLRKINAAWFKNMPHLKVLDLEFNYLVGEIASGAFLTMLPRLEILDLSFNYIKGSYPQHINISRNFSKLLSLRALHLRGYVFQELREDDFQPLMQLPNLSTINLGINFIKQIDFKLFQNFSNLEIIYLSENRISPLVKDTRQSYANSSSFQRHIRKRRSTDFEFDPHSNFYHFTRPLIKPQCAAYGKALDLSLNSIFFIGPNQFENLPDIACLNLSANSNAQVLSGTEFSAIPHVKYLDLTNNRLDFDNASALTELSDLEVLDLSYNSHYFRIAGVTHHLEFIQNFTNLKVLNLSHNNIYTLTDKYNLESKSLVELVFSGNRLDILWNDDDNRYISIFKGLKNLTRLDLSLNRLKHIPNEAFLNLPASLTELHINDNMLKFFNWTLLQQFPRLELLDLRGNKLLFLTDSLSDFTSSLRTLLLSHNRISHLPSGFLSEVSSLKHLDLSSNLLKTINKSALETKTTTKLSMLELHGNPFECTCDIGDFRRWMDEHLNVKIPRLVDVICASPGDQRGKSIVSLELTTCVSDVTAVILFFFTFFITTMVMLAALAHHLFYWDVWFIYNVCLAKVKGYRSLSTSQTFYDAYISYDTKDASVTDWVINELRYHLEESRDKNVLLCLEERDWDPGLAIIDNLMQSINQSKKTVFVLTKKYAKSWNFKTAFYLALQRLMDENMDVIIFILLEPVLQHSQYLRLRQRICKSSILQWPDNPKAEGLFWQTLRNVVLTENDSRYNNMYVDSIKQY
How it was run: (§1)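 HEK-Blue cells with NF-κB/AP-1-driven SEAP pre-treated 30 min with compound (0.05 nM–50 μM), then stimulated with gardiquimod 7.5 μM (TLR7), R848 15.9 μM (TLR8) or ODN2006 5 nM (TLR9). SEAP detected after 22 h at 37 °C; percent inhibition relative to agonist-plus-DMSO and known-inhibitor wells.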

human TLR7 = biological target: T2, human TLR7 (Homo sapiens, UniProt Q9NYK1); assay: TLR7 inhibition reporter assay (HEK-Blue cells, SEAP reporter); details: HEK-Blue cells overexpressing human TLR7; stimulated with gardiquimod 7.5 μM; 22 hour incubation; SEAP readout
T2 sequence (Q9NYK1 27-1049): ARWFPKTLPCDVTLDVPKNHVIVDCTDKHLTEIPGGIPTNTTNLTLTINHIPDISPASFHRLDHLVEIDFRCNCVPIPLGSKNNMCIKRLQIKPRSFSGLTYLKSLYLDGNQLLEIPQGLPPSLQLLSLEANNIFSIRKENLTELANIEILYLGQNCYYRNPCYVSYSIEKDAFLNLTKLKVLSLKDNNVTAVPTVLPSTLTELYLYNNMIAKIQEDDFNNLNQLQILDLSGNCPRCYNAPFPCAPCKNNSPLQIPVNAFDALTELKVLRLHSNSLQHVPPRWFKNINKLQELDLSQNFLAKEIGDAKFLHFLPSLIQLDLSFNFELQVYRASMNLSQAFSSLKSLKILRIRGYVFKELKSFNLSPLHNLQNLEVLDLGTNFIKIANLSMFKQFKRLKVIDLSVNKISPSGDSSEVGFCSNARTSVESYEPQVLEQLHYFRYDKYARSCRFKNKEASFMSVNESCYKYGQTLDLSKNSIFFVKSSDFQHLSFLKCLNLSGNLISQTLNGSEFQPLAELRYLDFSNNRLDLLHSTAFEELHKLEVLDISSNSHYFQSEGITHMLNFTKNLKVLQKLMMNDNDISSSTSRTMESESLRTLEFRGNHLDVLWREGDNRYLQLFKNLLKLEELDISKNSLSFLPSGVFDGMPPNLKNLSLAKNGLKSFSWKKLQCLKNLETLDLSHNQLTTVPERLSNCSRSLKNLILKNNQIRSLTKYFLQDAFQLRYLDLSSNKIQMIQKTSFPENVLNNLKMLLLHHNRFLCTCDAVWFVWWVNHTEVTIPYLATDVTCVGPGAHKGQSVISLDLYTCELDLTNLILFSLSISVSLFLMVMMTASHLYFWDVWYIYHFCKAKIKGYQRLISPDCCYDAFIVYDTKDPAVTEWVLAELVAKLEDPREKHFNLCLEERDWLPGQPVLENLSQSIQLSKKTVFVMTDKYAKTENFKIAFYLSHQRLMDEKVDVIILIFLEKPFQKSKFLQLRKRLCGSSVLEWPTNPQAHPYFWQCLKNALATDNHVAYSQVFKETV
How it was run: as §1

human TLR9 = biological target: T3, human TLR9 (Homo sapiens, UniProt Q9NR96); assay: TLR9 inhibition reporter assay (HEK-Blue cells, SEAP reporter); details: HEK-Blue cells overexpressing human TLR9; stimulated with ODN2006 5 nM; 22 hour incubation; SEAP readout
T3 sequence (Q9NR96 26-1032): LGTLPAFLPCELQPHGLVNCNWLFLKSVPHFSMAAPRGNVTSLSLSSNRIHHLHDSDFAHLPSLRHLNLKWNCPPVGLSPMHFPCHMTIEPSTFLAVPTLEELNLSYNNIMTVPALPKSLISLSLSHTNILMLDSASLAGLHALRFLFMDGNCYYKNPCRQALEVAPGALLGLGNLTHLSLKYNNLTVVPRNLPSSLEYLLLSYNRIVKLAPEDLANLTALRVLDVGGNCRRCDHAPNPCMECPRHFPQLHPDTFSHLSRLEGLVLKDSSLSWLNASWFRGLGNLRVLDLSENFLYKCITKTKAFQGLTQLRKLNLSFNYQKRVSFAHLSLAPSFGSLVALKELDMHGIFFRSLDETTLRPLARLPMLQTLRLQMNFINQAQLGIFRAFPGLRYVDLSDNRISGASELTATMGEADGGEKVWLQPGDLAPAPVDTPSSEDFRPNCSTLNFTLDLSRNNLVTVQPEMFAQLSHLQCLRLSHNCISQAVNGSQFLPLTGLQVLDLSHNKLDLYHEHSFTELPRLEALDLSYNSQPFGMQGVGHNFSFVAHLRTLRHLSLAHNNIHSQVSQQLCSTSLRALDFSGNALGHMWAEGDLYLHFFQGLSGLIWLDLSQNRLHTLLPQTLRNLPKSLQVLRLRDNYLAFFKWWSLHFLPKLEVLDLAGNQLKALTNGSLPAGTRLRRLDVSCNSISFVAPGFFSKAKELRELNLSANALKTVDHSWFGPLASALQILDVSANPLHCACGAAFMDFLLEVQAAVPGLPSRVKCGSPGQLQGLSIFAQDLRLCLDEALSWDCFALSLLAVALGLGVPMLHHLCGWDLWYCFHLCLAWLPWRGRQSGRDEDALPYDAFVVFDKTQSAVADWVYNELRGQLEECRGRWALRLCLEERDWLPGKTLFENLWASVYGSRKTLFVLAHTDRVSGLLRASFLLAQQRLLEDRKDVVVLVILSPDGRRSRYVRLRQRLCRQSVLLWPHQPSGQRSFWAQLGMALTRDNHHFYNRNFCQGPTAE
How it was run: as §1

IC50 (human TLR8) [µM] | IC50 (human TLR7) [µM] | IC50 (human TLR9) [µM] | SMILES
14.9 | 13.4 | 0.329 | Cc1cc(-c2ccc(N3CCN(CC4CC4)CC3)cc2)cn2cc(-c3ccc(S(C)(=O)=O)cc3)nc12 [Example 100, 6-(4-(4-(cyclopropylmethyl)piperazin-1-yl)phenyl)-8-methyl-2-(4-(methylsulfonyl)phenyl) imidazo[1,2-a]pyridine]
> 50 | 2.3 | 0.022 | COc1ccc(-c2cn3cc(C4CCN(C5CC6(C5)CN(C5CC5)C6)CC4)cc(C)c3n2)cc1OC [Example 17, 6-(1-(2-cyclopropyl-2-azaspiro[3.3]heptan-6-yl)piperidin-4-yl)-2-(3,4-dimethoxyphenyl)-8-methylimidazo[1,2-a]pyridine]
> 25 | > 25 | 2.38 | COc1ccc(-c2cn3cc(-c4ccc(N5CCN(C6COC6)CC5)cc4)cc(C)c3n2)cc1OC [Example 64, 2-(3,4-dimethoxyphenyl)-8-methyl-6-(4-(4-(oxetan-3-yl)piperazin-1-yl)phenyl) imidazo[1,2-a]pyridine]
36 | 1.6 | 0.0097 | CS(=O)(=O)c1ccc(-c2cn3cc(C4CCN(C5CCCN(CC6CC6)CC5)CC4)cc(F)c3n2)cc1 (single isomer, unassigned) [Example 127, 6-(1-(1-(cyclopropylmethyl)azepan-4-yl)piperidin-4-yl)-8-fluoro-2-(4-(methylsulfonyl)phenyl)imidazo[1,2-a]pyridine]
> 50 | 3.8 | 0.54 | COc1ccc(-c2cn3c(n2)CCC(C2CCN(C4CCN(CC5CC5)CC4)CC2)C3)cc1OC (single isomer, unassigned) [Example 56, 6-(1′-(cyclopropylmethyl)-[1,4′-bipiperidin]-4-yl)-2-(3,4-dimethoxyphenyl)-5,6,7,8-tetrahydroimidazo[1,2-a]pyridine]
> 50 | 2.3 | 0.021 | Cc1cc(C2CCN(C3CCN(C(C)C)CC3)CC2)cn2cc(-c3ccc(S(C)(=O)=O)cc3)nc12 [Example 8, 6-(1′-isopropyl-[1,4′-bipiperidin]-4-yl)-8-methyl-2-(4-(methylsulfonyl)phenyl) imidazo[1,2-a]pyridine]
> 50 | 22.9 | 0.303 | CC(C)N1CCC(N2CCC(c3cn4cc(-c5ccc(S(C)(=O)=O)cc5)nc4cc3F)CC2)CC1 [Example 70, 7-fluoro-6-(1′-isopropyl-[1,4′-bipiperidin]-4-yl)-2-(4-(methylsulfonyl)phenyl) imidazo[1,2-a]pyridine]
> 50 | 18 | 0.114 | COc1ccc(-c2cn3c(n2)CCC(C2CCN(C4CC5(C4)CN(CC(C)C)C5)CC2)C3)cc1OC (racemic) [Example 52, 2-(3,4-dimethoxyphenyl)-6-(1-(2-isobutyl-2-azaspiro[3.3]heptan-6-yl)piperidin-4-yl)-5,6,7,8-tetrahydroimidazo[1,2-a]pyridine]
> 50 | 2.2 | 0.329 | Cc1cc(C2CCN(C3CC4CCC(C3)N4CC3CCC3)CC2)cn2cc(-c3ccc(S(C)(=O)=O)cc3)nc12 (single isomer, unassigned) [Example 89, 6-(1-(8-(cyclobutylmethyl)-8-azabicyclo[3.2.1]octan-3-yl)piperidin-4-yl)-8-methyl-2-(4-(methylsulfonyl)phenyl)imidazo[1,2-a]pyridine]
17 | 2 | 0.066 | CC(C)CN1C2CCC1CC(N1CCC(c3cc(F)c4nc(-c5ccc(S(C)(=O)=O)cc5)cn4c3)CC1)C2 (single isomer, unassigned) [Example 114, 8-fluoro-6-(1-(8-isobutyl-8-azabicyclo[3.2.1]octan-3-yl)piperidin-4-yl)-2-(4-(methylsulfonyl)phenyl)imidazo[1,2-a]pyridine]
14 | 0.7 | 0.0039 | CS(=O)(=O)c1ccc(-c2cn3cc(C4CCN(C5CC6CCC(C5)N6CC5CC5)CC4)cc(F)c3n2)cc1 (single isomer, unassigned) [Example 116, 6-(1-(8-(cyclopropylmethyl)-8-azabicyclo[3.2.1]octan-3-yl)piperidin-4-yl)-8-fluoro-2-(4-(methylsulfonyl)phenyl)imidazo[1,2-a]pyridine]
> 50 | 1.6 | 0.038 | COc1ccc(-c2cn3c(n2)CCC(C2CCN(C4CCN(CC5CC5)CC4)CC2)C3)cc1OC (racemic) [Example 55, 6-(1′-(cyclopropylmethyl)-[1,4′-bipiperidin]-4-yl)-2-(3,4-dimethoxyphenyl)-5,6,7,8-tetrahydroimidazo[1,2-a]pyridine]
23 | > 50 | 0.106 | CC(C)N1CCC(N2CCC(c3ccc4nc(-c5ccc(S(C)(=O)=O)cc5)cn4c3F)CC2)CC1 [Example 73, 5-fluoro-6-(1′-isopropyl-[1,4′-bipiperidin]-4-yl)-2-(4-(methylsulfonyl)phenyl) imidazo[1,2-a]pyridine]
